Reference: US6642003B2, “Human glucose-dependent insulin-secreting cell line” (Cedars-Sinai Medical Center, priority 2001, dated 2003)

Tests used:
[1] = system: PANC-1 cells; assay: Immunofluorescence for IDX-1, parental PANC-1 cells; type: cell-based, human; details: vehicle alone or GLP-1
Method: (§1) Cells were cultured on monocoated chamber slides (Nalge Nunc International; Naperville, Ill.) in the presence of GLP-1 (10 nM), or vehicle, for 72 h.
(§2) For the detection of IDX-1, slightly different conditions were used. Briefly: the concentration of paraformaldehyde was decreased to 2%, and the concentration of Triton to permeabilize the cells was raised to 0.2% Triton-X-100. Cells were then washed with 0.01 M PBS three times for 3-5 min, and non-specific binding was inhibited by using 5% chick serum in 0.01 M PBS, at room temperature for 60 min in a humid chamber. A rabbit IDX-1 antibody directed against the N-terminus of the frog homologue of the IDX-1 gene was used as the primary antibody (1:500 diluted with 0.1% Triton-X 100, 1% BSA in 0.01 M PBS), and slides were incubated at 4° C. overnight in a humid chamber. After washing, cells were incubated with a fluorescein-conjugated goat anti-rabbit IgG antibody (Molecular Probes, Inc. Eugene, Oreg.) and incubated at room temperature for 1 hour in a humid chamber. Nuclei of cells stained with anti-IDX-1 antibody were visualized with Hoechst […] dye (Sigma, St. Louis, Mo.). The percentage of IDX-1 containing cells was evaluated by counting the number of IDX-1 “positive” cells divided by the total number of cells identified by nuclear staining.

[2] = system: PANC-1 cells; assay: Immunocytochemistry for insulin, parental PANC-1 cells; type: cell-based, human; details: presence or absence of GLP-1
Method: as §1
(§3) For the detection of insulin, cells were washed and fixed with 3% paraformaldehyde for 4 h, at room temperature in PBS, solubilized with 0.1% (vol/vol) Triton X-100 in PBS for 5 min. Cells were then incubated sequentially with an anti-insulin antibody and a secondary antibody, as described by the manufacturer (Biomeda Corp.; Foster City, Calif.). The cells were examined using a Ziess Axiophoto microscope (New York, N.Y.).

[3] = system: ARIP cells; assay: Insulin release into culture medium (RIA), ARIP cells; type: cell-based, rat
Method: (§4) Rat (ARIP) and human (PANC-1) ductal cell lines were respectively a gift from Dr. J. M. Egan (National Institute on Aging, Baltimore, Md.) or purchased from ATCC (American Type Culture Collection; Manassas, Va.). ARIP cells were cultured in F12 medium (Gibco-BRL, Gaithersburg; Md.) containing 100 μg/ml penicillin, 50 μg/ml streptomycin and 10% fetal calf serum (FCS; Gibco-BRL) at 37° C. under a humidified condition of 95% air and 5% CO2. PANC-1 cells were cultured in DMEM medium supplemented with antibiotics and FCS, as indicated for F12 medium. Treatment with human GLP-1 (H-6795, Bachem; King of Prussia, Pa.) was carried out using cells grown to 80% of confluence, after washing the cell layer with serum-free medium and a “wash-out” incubation for 6-h with serum free medium. To determine dose response to GLP-1, cells were cultured with fresh serum-free medium containing increasing concentration of GLP-1 (0.1, 1, 10, 20 nM), or vehicle alone. At the completion of the experiment, media and cells were collected. To determine the time course of response, cells were cultured in serum-free medium with GLP-1 (10 nM) for 0, 12, 24, 48, 72 or 96 h. Control dishes were cultured with vehicle alone, or with the peptide receptor antagonist of GLP-1, Exendin-9 (100 nM) for 72 h (gift Dr. J. M. Egan). The glucose concentration in the culture medium was 12 mM for both cell lines.
(§5) PANC-1 (parental, IDX-1-transfected, and neomycin-transfected) cells and ARIP (only parental) cells were plated at density of 10^6 cells/well in a 6 well plate. Once the cells reached 80% of confluence, they were washed with serum-free medium containing 12 mM glucose and exposed to fresh serum-free medium for increasing length of time (0, 12, 24, 48, 72, 96 h) in the presence of various concentrations of GLP-1 (0.1, 1, 10, 20 nM) or vehicle. Glucose-dependent insulin secretion was evaluated by culturing the cells in the presence of a determined concentration of GLP-1 (10 nM for 72 h) with increasing concentration of glucose in the culture medium ([…]). Insulin released into the medium was measured by RIA (Linco Research Inc.; St. Charles, Mass.). Total insulin accumulation in the culture medium was then normalized for total cellular protein content per each Individual cultures.
(§6) Total cellular protein content was measured by utilizing the Bradford method (Bio-Rad; Richmond, Calif.). The amount of proteins measured was used as a correction factor for determining the relative amount of medium to be assayed for each individual RIA for insulin.

[4] = system: ARIP cells; assay: Immunofluorescence for IDX-1, ARIP cells; type: cell-based, rat
Method: as §1, §2

[5] = system: ARIP cells; assay: Immunocytochemistry for insulin, ARIP cells; type: cell-based, rat; details: GLP-1 10 nM, 72 h
Method: as §1, §3

[6] = system: PANC-1/IDX-1 cells; assay: Insulin release into culture medium (RIA), PANC-1 cells transfected with human IDX-1; type: cell-based
Method: as §4
PANC-1 cells were transfected with a pcDNA3 construct (Invitrogen; Carlsbad, Calif.) harboring the wild-type full-length IDX-1 cDNA using LipoTAXI (Catalog N. 204110; Mammalian Transfection Kit, Stratagene; La Jolla, Calif.). Control cells were transfected with the vector alone. The selection of positive (i.e. transfected) cells was carried out by culturing the cells in the presence of 400 μg/ml of G418 sulfate (GN-04, Omega; Tarzana, Calif.).
as §5, §6

[7] = system: glucose-intolerant aging Wistar rats; details: cited from earlier work
[8] = GLP-1 10 nM for 72 h, increasing glucose
[9] = serum-free medium, 12 mM glucose, 72 h

Substance: glucagon-like peptide-1 [GLP-1]
- IDX-1 staining [1]: No positive IDX-1 staining
- insulin immunostaining [2]: No positive insulin immunostaining
- lowest concentration of glucose required to induce the secretion of insulin ([3]; GLP-1 10 nM for 72 h): 3 mM
- glucose dependence of insulin release [3, 8]: release insulin in a glucose-dependent manner
- time of maximal insulin secretion ([3]; GLP-1 10 nM, 12 mM glucose): 48 h
- time of plateau of insulin secretion ([3]; GLP-1 10 nM, 12 mM glucose): 72 h
- GLP-1 concentration at plateau of insulin accumulation in the culture medium [3, 9]: 20 nM
- minimum concentration of GLP-1 required to transform ARIP ductal cells into insulin producing cells [3, 9]: 1 nM
- effect on expression level of IDX-1 ([4]; GLP-1 10 nM for 72 h): further increase
- cells expressing IDX-1 ([4]; GLP-1 or vehicle, 400 cells counted): approximately 70%
- insulin immunostaining [5]: positive immunoreactivity for insulin
- lowest concentration of glucose required to induce the secretion of insulin ([6]; GLP-1 10 nM for 72 h): 3 mM
- glucose dependence of insulin release [6, 8]: release insulin in a glucose-dependent manner
- time of peak insulin secretion ([6]; GLP-1 10 nM, 12 mM glucose): ≤ 48 h
- time of plateau of insulin secretion ([6]; GLP-1 10 nM, 12 mM glucose): 72 h
- concentration of GLP-1 required to induce insulin secretion [6, 9]: 1 nM
- effect on glucose tolerance [7]: restored normal glucose tolerance
- effect on islet cell proliferation [7]: induced islet cell proliferation
